# Reference: US6995143B2, “Macrolides with antibacterial activity” (Basilea Pharmaceutica AG, priority 2002, dated 2006)
# Experiments:
# Assay type in all cases: cell-based
# [1] = tested on: Escherichia coli ATCC 25922; experiment: MIC, standard microdilution technique; details: for MIC: ATCC25922, read-out: minimum inhibitory concentration (MIC), Strain D
# Procedure, shortened: (§1)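 Susceptibility testing used the NCCLS fifth-edition approved standard for aerobic organisms (M7-A5).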
# [2] = tested on: Staphylococcus aureus 1086; experiment: MIC, standard microdilution technique; details: for MIC: read-out: minimum inhibitory concentration (MIC), Strain B
# Procedure, shortened: as §1
# [3] = tested on: Staphylococcus aureus 745; experiment: MIC, standard microdilution technique; details: for MIC: read-out: minimum inhibitory concentration (MIC), Strain C
# Procedure, shortened: as §1
# [4] = tested on: Staphylococcus aureus ATCC 29213; experiment: MIC, standard microdilution technique; details: for MIC: ATCC29213, read-out: minimum inhibitory concentration (MIC), Strain A
# Procedure, shortened: as §1
# [5] = tested on: Streptococcus pneumoniae 12288; experiment: MIC, standard microdilution technique; details: for MIC: read-out: minimum inhibitory concentration (MIC), Strain H
# Procedure, shortened: as §1
# [6] = tested on: Streptococcus pneumoniae SL199T; experiment: MIC, standard microdilution technique; details: for MIC: read-out: minimum inhibitory concentration (MIC), Strain G
# Procedure, shortened: as §1
# [7] = tested on: Streptococcus pneumoniae l/l; experiment: MIC, standard microdilution technique; details: for MIC: read-out: minimum inhibitory concentration (MIC), Strain E
# Procedure, shortened: as §1
# [8] = tested on: Streptococcus pneumoniae ¼; experiment: MIC, standard microdilution technique; details: for MIC: read-out: minimum inhibitory concentration (MIC), Strain F
# Procedure, shortened: as §1
# [9] = tested on: Haemophilus influenzae 12214; experiment: MIC, standard agar dilution method using HTM medium; details: for MIC: read-out: minimum inhibitory concentration (MIC), Strain K
# Procedure, shortened: (§2)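 The reported MIC comes from dilution testing done to NCCLS guidance M7-A5. Organism: Haemophilus influenzae.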
# [10] = tested on: Haemophilus influenzae B1501; experiment: as above; details: for MIC: read-out: minimum inhibitory concentration (MIC), Strain M
# Procedure, shortened: as §2
# [11] = tested on: Haemophilus influenzae QK12/87; experiment: as above; details: for MIC: read-out: minimum inhibitory concentration (MIC), Strain I
# Procedure, shortened: as §2
# [12] = tested on: Haemophilus influenzae QK50; experiment: as above; details: for MIC: read-out: minimum inhibitory concentration (MIC), Strain L
# Procedure, shortened: as §2
SMILES,"minimum inhibitory concentration (MIC), Strain D [1]","minimum inhibitory concentration (MIC), Strain B [2]","minimum inhibitory concentration (MIC), Strain C [3]","minimum inhibitory concentration (MIC), Strain A [4]","minimum inhibitory concentration (MIC), Strain H [5]","minimum inhibitory concentration (MIC), Strain G [6]","minimum inhibitory concentration (MIC), Strain E [7]","minimum inhibitory concentration (MIC), Strain F [8]","minimum inhibitory concentration (MIC), Strain K [9]","minimum inhibitory concentration (MIC), Strain M [10]","minimum inhibitory concentration (MIC), Strain I [11]","minimum inhibitory concentration (MIC), Strain L [12]",also measured
"CC[C@H]1OC(=O)[C@H](C)C(=O)[C@H](C)[C@@H](O[C@@H]2O[C@H](C)C[C@H](N(C)C)[C@H]2O)[C@](C)(OC)C[C@@H](C)C(=O)[C@H](C)[C@H]2[C@@H](SCC(=O)Nc3ccccc3-c3ccccc3OC)C(=O)O[C@@]21C (single isomer, unassigned) [Example 53]",>32 µg/mL,0.25 µg/mL,>32 µg/mL,0.5 µg/mL,>32 µg/mL,16 µg/mL,<=0.06 μg/ml,1 µg/mL,16 µg/mL,16 µg/mL,8 µg/mL,8 µg/mL,
"CC[C@H]1OC(=O)[C@@](C)(F)C(=O)[C@H](C)[C@@H](O[C@@H]2O[C@H](C)C[C@H](N(C)C)[C@H]2O)[C@](C)(OC)C[C@@H](C)C(=O)[C@H](C)[C@H]2[C@@H](SCCn3cnc4c(N)ncnc43)C(=O)O[C@@]21C (single isomer, unassigned) [Example 56]",32 µg/mL,<=0.06 μg/ml,>32 µg/mL,<=0.06 μg/ml,1 µg/mL,<=0.06 μg/ml,<=0.06 μg/ml,<=0.06 μg/ml,1 µg/mL,0.5 µg/mL,1 µg/mL,0.5 µg/mL,
"CC[C@H]1OC(=O)[C@@](C)(F)C(=O)[C@H](C)[C@@H](O[C@@H]2O[C@H](C)C[C@H](N(C)C)[C@H]2O)[C@](C)(OC)C[C@@H](C)C(=O)[C@H](C)[C@H]2[C@@H]([S+]([O-])CCCn3cnc4c(N)ncnc43)C(=O)O[C@@]21C (single isomer, unassigned) [Example 57]",>32 µg/mL,2 µg/mL,>32 µg/mL,2 µg/mL,32 µg/mL,1 µg/mL,<=0.06 μg/ml,0.125 µg/mL,8 µg/mL,4 µg/mL,4 µg/mL,8 µg/mL,
"CC[C@H]1OC(=O)[C@H](C)[C@@H](O[C@H]2C[C@@](C)(OC)[C@@H](O)[C@H](C)O2)[C@H](C)[C@@H](O[C@@H]2O[C@H](C)C[C@H](N(C)C)[C@H]2O)[C@](C)(OC)C[C@@H](C)C(=O)[C@H](C)[C@@H](O)[C@]1(C)O [Clarithromycin, reference compound]",,,,,,,,,,,,,MIC [1]: > 32 µg/mL; MIC [2]: > 32 µg/mL; MIC [3]: > 32 µg/mL; MIC [4]: 0.125 µg/mL; MIC [5]: > 32 µg/mL; MIC [6]: > 32 µg/mL; MIC [7]: ≤ 0.06 µg/mL; MIC [8]: 32 µg/mL; MIC [9]: 4 µg/mL; MIC [10]: 4 µg/mL; MIC [11]: 4 µg/mL; MIC [12]: 8 µg/mL
"CC[C@H]1OC(=O)[C@H](C)[C@@H](O[C@H]2C[C@@](C)(OC)[C@@H](O)[C@H](C)O2)[C@H](C)[C@@H](O[C@@H]2O[C@H](C)C[C@H](N(C)C)[C@H]2O)[C@](C)(O)C[C@@H](C)C(=O)[C@H](C)[C@@H](O)[C@]1(C)O [Erythromycin, reference compound]",,,,,,,,,,,,,MIC [1]: > 32 µg/mL; MIC [2]: > 32 µg/mL; MIC [3]: > 32 µg/mL; MIC [4]: 0.25 µg/mL; MIC [5]: > 32 µg/mL; MIC [6]: > 32 µg/mL; MIC [7]: ≤ 0.06 µg/mL; MIC [8]: > 32 µg/mL; MIC [9]: 4 µg/mL; MIC [10]: 4 µg/mL; MIC [11]: 4 µg/mL; MIC [12]: 8 µg/mL
CC[C@H]1OC(=O)[C@H](C)C(=O)[C@H](C)[C@@H](O[C@@H]2O[C@H](C)C[C@H](N(C)C)[C@H]2O)[C@](C)(OC)C[C@@H](C)C(=O)[C@H](C)[C@H]2[C@@H](SCCN(C)CCn3cnc4c(N)ncnc43)C(=O)O[C@@]21C [Example 9],>32 µg/mL,1 µg/mL,>32 µg/mL,1 µg/mL,32 µg/mL,8 µg/mL,<=0.06 μg/ml,0.5 µg/mL,16 µg/mL,4 µg/mL,8 µg/mL,8 µg/mL,

# Further lines, with some results ahead:
"minimum inhibitory concentration (MIC), Strain D [1]","minimum inhibitory concentration (MIC), Strain B [2]","minimum inhibitory concentration (MIC), Strain C [3]","minimum inhibitory concentration (MIC), Strain A [4]","minimum inhibitory concentration (MIC), Strain H [5]","minimum inhibitory concentration (MIC), Strain G [6]","minimum inhibitory concentration (MIC), Strain E [7]","minimum inhibitory concentration (MIC), Strain F [8]","minimum inhibitory concentration (MIC), Strain K [9]","minimum inhibitory concentration (MIC), Strain M [10]","minimum inhibitory concentration (MIC), Strain I [11]","minimum inhibitory concentration (MIC), Strain L [12]",SMILES,also measured
>32 µg/mL,1 µg/mL,>32 µg/mL,1 µg/mL,>32 µg/mL,32 µg/mL,<=0.06 μg/ml,>32 µg/mL,32 µg/mL,32 µg/mL,>32 µg/mL,32 µg/mL,CC[C@H]1OC(=O)[C@H](C)C(=O)[C@H](C)[C@@H](O[C@@H]2O[C@H](C)C[C@H](N(C)C)[C@H]2O)[C@](C)(OC)C[C@@H](C)C(=O)[C@H](C)[C@H]2[C@@H](SCC(=O)c3ccc4c(c3)CCC(=O)N4)C(=O)O[C@@]21C [Example 6],
>32 µg/mL,0.5 µg/mL,>32 µg/mL,1 µg/mL,>32 µg/mL,32 µg/mL,<=0.06 μg/ml,32 µg/mL,32 µg/mL,32 µg/mL,32 µg/mL,32 µg/mL,CC[C@H]1OC(=O)[C@H](C)C(=O)[C@H](C)[C@@H](O[C@@H]2O[C@H](C)C[C@H](N(C)C)[C@H]2O)[C@](C)(OC)C[C@@H](C)C(=O)[C@H](C)[C@H]2[C@@H](SCC(=O)c3ccccn3)C(=O)O[C@@]21C [Example 7],
